Source: patent US20260240842A1, “METHODS TO PREVENT THERAPY RESISTANCE IN MELANOMA VIA BLOCKING GENOMIC INSTABILITY” (THE REGENTS OF THE UNIVERSITY OF CALIFORNIA, priority 2022, published 2026)

Test system: human BRAF^V600MUT (M229, M249, M395) or NRAS^Q61MUT (M202, M207, M245) melanoma cell lines
Test: Long-term clonogenic growth: emergence of acquired MAPKi-resistant colonies (DTPPs) in parental melanoma cell lines under MAPKi
Type: cell-based
Settings: for efficacy of co-treatment during the second half of the MAPKi treatment course: M229 (day 14-28) and M245 (day 15-30); for suppression of resistance with delayed co-treatment: M229 and M245, 3- to 3.5-week delay in co-treatment, FIGS. 4R and 4S; for sensitivity of M249 parental cell line to resistance suppression: M249, FIG. 4D; for prevention of DTPP formation / suppression of acquired MAPKi resistance: in combination with MAPKi (BRAFi+MEKi or MEKi), parental cell lines, FIG. 4
Protocol: FIGS. 4A-4U. DNA-PKi and/or PARPi co-treatment prevents acquired MAPKi-resistance in human melanoma cell lines. FIGS. 4A to 4O: Long-term clonogenic growth of isogenic parental and acquired MAPKi-resistant BRAF^V600MUT (4A to 4H) or NRAS^Q61MUT (4I to 4O) human melanoma cell lines showing acquired-resistant colonies to BRAFi+MEKi (PLX4032 at 0.5 mM, AZD6244 at 0.5 mM in 4A and 4G; PLX4032 at 0.25 mM, AZD6244 at 0.25 mM in 4D; PLX4032 at 1 mM, AZD6244 at 1 mM in 4B, 4C, 4E, 4F and 4H) or MEKi (trametinib at 0.005 mM in I and 0.01 mM in 4J and 4N; trametinib at 0.1 mM in 4K, 4M and 4O) and their suppression by indicated co-treatments with DNA-PKi (NU7026) and/or PARPi (ABT888) at indicated concentrations. Top, representative cultures; bottom, quantifications over n=4 fields (mean±SD). Data representative of 2 to 4 independent repeats. Seeding densities (cells/well in 6-well dishes) and culture durations (days): (4A) 5,000; 31, (4B) 1,000; 17, (4C) 5,000; 18, (4D) 40,000; 40, (4E) 5,000; 14, (4F) 5,000; 12, (4G) 20,000; 30, (4H) 20,000; 21, (4I) 40,000; 30, (4J) 50,000; 31, (4K) 5,000; 17, (4L) 5,000; 22, (4M) 5,000; 16, (4N) 20.000; 16, and (4O) 5,000; 16. Data representative of 2 to 4 independent repeats. FIGS. 4P and 4Q: Western blot, MTT assay (upper), and clonogenic growth assay (lower) of M245 cells transduced by lentivirus harboring shVector control or shRNAs of PRKDC (4P) or LIG4 (4Q). TUBULIN, loading control. Clonogenic growth with vehicle (14 days, 5,000 cells/well in 6-well dishes) or MEKi (29 days, 50,000 cells/well in 6-well dishes) treatments. MEKi, trametinib at 0.01 μM. Representative results of two independent experiments; quantification of n=4 fields (mean±SD). FIGS. 4R and 4S: As in 4A and 4J, respectively, except DNA-PKi and/or PARPi co-treatments were performed in M229 (4R) and M245 (4S) at a later stage of MAPKi treatment (see timepoint schema). Inhibitor concentrations for M229: BRAFi+MEKi (PLX4032 at 0.5 μM, AZD6244 at 0.5 μM), NU7026 (8 μM), ABT888 (4 μM) and NU7026+ABT888 (4 μM+4 μM). Inhibitor concentrations for M245: MEKi (trametinib at 0.01 μM), NU7026 (5 μM), ABT888 (1 μM) and NU7026+ABT888 (5 μM+1 μM). Left, representative cultures; right, quantifications over n=4 fields (mean±SD). Data representative of 2 independent repeats. FIGS. 4T and 4U: As in 4A and 4J, respectively, except DNA-PKi and/or PARPi co-treatments were performed in M229 (4T) and M245 cells (4U) at the same concentrations in R and S for the entire durations (day 1-28 in 4T; day 1-30 in 4U), the first half (day 1-14 in T; day 1-15 in 4U) or the second half (day 14-28 in 4T: day 15-30 in 4U) of the total treatment course. Top, representative cultures; bottom, quantifications over n=4 fields (mean±SD). Data representative of 2 independent repeats. P values (one-way ANOVA followed by Tukey's multiple comparison test) comparing indicated cultures versus MAPKi-only cultures (4A to 4O and 4R to 4U) or shVector culture (4P and 4Q): *, p<0.05; **, p<0.01: ***, p<0.001.
FIGS. 12A-12F. DNA-PKi and/or PARPi co-treatment prevents acquired MAPKi-resistance in human melanoma cell lines. FIGS. 12A to 12F: Long-term clonogenic growth of BRAF^V600MUT (12A, 12C and 12E) or NRAS^Q61MUT (12B, 12D and 12F) cell lines showing acquired-resistant colonies to BRAFi+MEKi (PLX4032 at 0.5 mM, AZD6244 at 0.5 mM for M229 and M395; PLX4032 at 0.25 mM, AZD6244 at 0.25 mM for M249) or MEKi (trametinib at 0.005 mM for M202 and 0.01 mM for M207 and M245) and their suppression by indicated co-treatments with DNA-PKi (VX984 in 12A and 12B; AZD7648 in 12C and 12D) and/or PARPi (olaparib in 12E and 12F) at indicated concentrations. Top, representative cultures; bottom, quantifications over n=4 fields (mean±SD). Data representative of 2 independent repeats. Seeding densities (cells/well in 6-well dishes) and culture durations (days): M202 (40,000, 30), M207 (20,000, 16), M229 (5,000, 32), M245 (50,000, 31), M249 (40,000, 40), and M395 (20,000, 30). […]

Compound | efficacy of co-treatment during the first half of the MAPKi treatment course (M229 (day 1-14) and M245 (day 1-15), FIGS. 4T and 4U) | efficacy of co-treatment during the second half of the MAPKi treatment course (FIGS. 4T and 4U) | suppression of resistance with delayed co-treatment | sensitivity of M249 parental cell line to resistance suppression | prevention of DTPP formation / suppression of acquired MAPKi resistance | prevention of DTPP formation / suppression of acquired MAPKi resistance (listed as DNA-PKi)
O=c1cc(N2CCOCC2)oc2c1ccc1ccccc12 [NU7026] | remititive | partially remititive | reduced the suppression of resistance | highly sensitive to resistance suppression | synergistically and dose-dependently prevented DTPP formation in all parental cell lines tested | generally more effective than PARPi in preventing acquired resistance
C[C@]1(c2nc3c(C(N)=O)cccc3[nH]2)CCCN1 [ABT888, veliparib] | – | completely lost | reduced the suppression of resistance | highly sensitive to resistance suppression | activity in 3 of 6 parental cell lines | –
